US7232846B2, “Amines as anti-alcoholism agents” (priority 2001, dated 2007)

Tests used:
[1] = tested on: genetically-alcoholic rats (UChB strain); assay: Anti-alcoholism activity in genetically-alcoholic rats (consumption of 10% v/v alcohol); assay type: in vivo, rat; settings: for Reduction percentage in the consumption of alcohol (10% v/v), treat.: first 6 h after starting the treatment, vs reference period; for Reduction percentage in the consumption of alcohol (10% v/v), post-treat.: first 6 h after having stopped a 3-day treatment
Excerpt: As an animal model of alcoholic humans, adult Wistar rats of both sexes, belonging to the UChB strain were used. This strain of rats is the result of a long selection at the University of Chile, and rats belonging to it are known to be volunteer consumers of 10% (v/v) aqueous alcohol (cf. J. Mardones and N. Segovia-Riquelme, “Thirty two years of selection of rats by ethanol preference”: UChA and UChB strains”, Neurobehav. Toxicol. and Teratol. 1983, vol. 5, pp. 171–178). Thus, the rats used in these experiments can be considered genetically alcoholic.
Rats were kept in individual cages at 22° C., with alternative 12 h periods of light and darkness. Besides unlimited access to food, they had ad libitum access to water and 10% (v/v) aqueous alcohol. All experiments were double-blind, and results were analyzed using common statistical methods. As changes in alcohol consumption might be influenced by the eagerness of food and/or water intake, both the consumption of food and of water were measured and analyzed. However, experimental changes in the consumptions of both food and water were not significant. In each experiment the following three periods of time were considered:
a) A reference period, consisting of the three days previous to treatment. The measured consumption values were used as reference for comparison purposes.
b) A treatment period, consisting of the three days during which aqueous solutions of the tested compounds (obtained from SIGMA) were intra-gastrically administered, always at the same time of the day. Polyamines were administered as aqueous solutions of their corresponding fully-neutralized hydrochlorides, at concentration of 100 mg of the free-amine per 100 ml of water, when doses of 2 mg of amine per kg of rat; and at concentration of 1000 mg/100 ml, When doses of 20 mg/kg. Dansyl derivatives of polyamines were administered as aqueous suspensions of 100 mg of derivative per 100 ml of water, when doses of 4 mg of free-amine per kg of rat.
c) A post-treatment period, consisting of the three days immediate after the treatment period, during which measurement were taken in order to establish the duration of the effect and the reversibility of the changes.
Table 1 summarizes the average results from nine experiments, each one carried out with a set of 8 rats, where several compounds at different doses were used, and measurements of alcohol consumption were done at 6 h after the beginning of the treatment period, and at 6 h after the beginning of the post-treatment period. Figures in the table are differences in 10% (v/v) ethanol consumption between a given consumption during the reference period and the corresponding consumption during the treatment (or post-treatment) period, expressed a percentage of the consumption during the reference period (i.e. divided by this and multiplied by 100). As indicated by the figures, during treatment a significant reduction occurred in all cases; and during post-treatment a significant reduction occurred in all cases but two (those marked “ns”=non significant). Results in the table also indicate that there is a dose-effect relationship in the reduction of alcohol consumption during the treatment period.

[2] = Assessment of the disulfiram-like adverse effect (blood acetaldehyde after ethanol injection); assay type: in vivo, rat; settings: Wistar rats, single 2 mg/kg p.o. 1 h before ethanol, mean ± SEM
Experimental: Blood samples were taken from the tail of the rat at different times after the injection of the ethanol solution. […] The animals of the disulfiram group received two doses of 300 mg p.o. of disulfiram per kg of rat, 23 h and 17 h before the administration of ethanol. The high concentration of acetaldehyde detected in these groups was expected. […] The animals of the other four groups received a single dose p.o. of 2 mg of the corresponding compound (in the form of 10 mg/100 ml aqueous solutions, which was of the hydrochlorides in the case of polyamines) per kg of rat, 1 h before the administration of ethanol. Figures in the table are mean values (±SEM) of acetaldehyde concentration in blood at the indicated times. It is observed that values of the groups corresponding to the four tested compounds were only slightly above the control ones, but far below the corresponding values of the disulfiram group.

[3] = dose 20 mg/kg, ns = non significant
[4] = dose 2 mg/kg, ns = non significant

Molecule	Reduction percentage in the consumption of alcohol (10% v/v), treat. ([1]; dose 20 mg/kg intra-gastric)	Reduction percentage in the consumption of alcohol (10% v/v), post-treat. [1, 3]	Reduction percentage in the consumption of alcohol (10% v/v), treat. ([1]; dose 2 mg/kg intra-gastric)	Reduction percentage in the consumption of alcohol (10% v/v), post-treat. [1, 4]	Reduction percentage in the consumption of alcohol (10% v/v), treat. ([1]; dose 4 mg/kg intra-gastric)	Reduction percentage in the consumption of alcohol (10% v/v), post-treat. ([1]; dose 4 mg/kg)	Acetaldehyde concentration in blood ([2]; 0.5 h after i.p. 2.76 g/kg ethanol)	Acetaldehyde concentration in blood ([2]; 2 h after i.p. 2.76 g/kg ethanol)
NCCCN [1,3-propanediamine]	27%	12%	–	–	–	–	–	–
NCCCCN [putrescine]	28%	13%	13%	ns	–	–	–	–
NCCCCNCCCN [spermidine]	29%	ns	25%	17%	–	–	–	–
NCCCNCCCCNCCCN [spermine]	42%	12%	27%	29%	–	–	–	–
dansyl putrescine	–	–	–	–	23%	22%	–	–
dansyl spermidine	–	–	–	–	29%	19%	150 ± 5 μg/100 ml	40 ± 9 μg/100 ml
